{
  "source": "patent US8158589B2",
  "about": "“Peptides with the capacity to bind to transforming growth factor β1 (TGF-β1)” (Proyecto Biomedicine Cima, S.L., priority 2003, dated 2012)",
  "key": {"TGF-β1 [1]": {"target": "T1, TGF-β1 (Mus musculus, UniProt P04202)", "T1 construct": "from tissue; host or cells: liver of Balb/C mice (CCl4 model); lung of C57BL/6 mice (bleomycin model)", "T1 sequence (P04202 279-390 limits assumed)": "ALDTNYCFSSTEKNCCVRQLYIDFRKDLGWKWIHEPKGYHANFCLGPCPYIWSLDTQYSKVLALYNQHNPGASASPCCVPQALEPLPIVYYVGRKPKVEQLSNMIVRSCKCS", "assay": "Model of acute liver damage induced by CCl4, type I collagen mRNA by real time PCR", "type": "in vivo, mice", "procedure,_shortened": "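Female Balb/C mice (25–30 g) received a single oral dose of CCl4 at 2 µl/g body weight in corn oil (1:1). Peptide was given at 50 µg in 500 µl of 1% saline in DMSO every 24 h. At 72 h, liver type I collagen mRNA was quantified by real-time PCR against corn-oil controls.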"}, "TGF-β1 [2]": {"target": "T1, TGF-β1", "assay": "Bleomycin-induced pulmonary fibrosis, therapeutic treatment started ten days after bleomycin", "type": "in vivo, mice", "description": "Female C57BL/6 mice (6-8 weeks of age) were obtained from Harlan SL (Barcelona, Spain) and maintained in accordance with the ethical committee of Universidad de Navarra (Spain) for the experimental use of animals. Lung injury was induced with 0.08 units/mouse of bleomycin sulfate (Sigma, Spain) diluted in 200 μl of phosphate buffered saline (PBS). Briefly, the suspension of bleomycin was instilled by pippeting into the nose of mice previously anesthetized with 2% isoflurane vapor. PBS was instilled in mice as a negative control for pulmonary fibrosis (PF), following the same procedures. Peptide treatment was started two days after bleomycin challenge and it was administered intraperitoneally in 500 μl of PBS on alternate days. Mice received high (75 μg/mouse) or low (25 μg/mouse) doses of P17, or the high dose (75 μg/mouse) of control peptide P301. Lungs were obtained 15 or 26 days after bleomycin administration to evaluate profibrogenic gene expression or histological damage, respectively. To study the therapeutic effect of P17 in the development of fibrosis, it was administered daily ten days after bleomycin challenge, once fibrosis was established. […]\nLungs were fixed by inflation with 4% paraformaldehyde overnight and dehydrated in 70% ethanol. […] Percentage of fibrosis in the lung was evaluated by light microscopy by three different qualified persons using a blinded system."}, "TGF-β1 [3]": {"target": "T2, TGF-β1 (Homo sapiens, UniProt P01137)", "assay": "Immunofluorescence of p-Smad2 translocation to the nucleus in rabbit corneal fibroblasts", "type": "cell-based", "parameters": "host or cells: added to a primary culture of rabbit corneal fibroblasts", "details": "TGF-β1 treated rabbit corneal fibroblasts", "description": "Therefore, Western Blot and immunofluorescence studies were conducted to determine, from cells extracted from the in vivo studies, the signaling pathway used by the peptides administered topically. It should be emphasized that said studies were conducted on fibroblasts from rabbit cornea and not from rat cornea. This decision was made due to the difficulty entailed in isolating fibroblasts from rodent eyes."}, "TGF-β1 [4]": {"target": "T2, TGF-β1", "assay": "CTGF mRNA expression induced by TGF-β1 in IMR-90 lung fibroblasts, real time RT-PCR", "type": "cell-based", "parameters": "purchased R&D Systems; host or cells: added to IMR-90 human lung fibroblasts", "details": "IMR-90 cells, 5 ng/ml TGF-β1, peptide 100 μg/ml, 6 hours", "description": "IMR-90 human lung fibroblasts (ATCC, Manassas, Va.) were cultured in EMEM medium (Cambrex, Belgium) supplemented with 10% fetal bovine serum (FBS), 1 mM sodium pyruvate, 0.1 mM nonessential amino acids, 100 U/ml penicillin and 100 μg/ml streptomycin (Gibco BRL, UK). For experiments, 6×10^4 cells/well were cultured in 6-well plates in 2 ml of medium and when they were 80% confluent, medium was replaced with serum-free EMEM for 48 h to induce quiescence. TGF-β1 (5 ng/ml) and P17 (100 μg/ml) were co-incubated for 90 min at 37° C. to allow binding of both molecules before addition to cell cultures. Quiescent cells were then stimulated with TGF-β1 and/or P17 for up to 6 or 24 h. After these incubation periods, fibroblasts were harvested for gene and protein analysis, respectively.\nTotal RNA was purified from IMR-90 fibroblasts and whole lung samples using Ultraspec RNA (Biotecx; Houston, Tex.) according to the manufacturer's instructions. […] Expression of human Connective Tissue Growth Factor (CTGF) mRNA induced by TGF-β1 in IMR-90 fibroblasts was measured by real time RT-PCR using an ICycler and IQ SYBR Supermix (Bio-Rad, Italy). […] For in vivo analysis, expression of murine Fibronectin (FN), extra domain A of Fibronectin (EDA-FN), Collagen type I and Interferon gamma (IFN-γ) was measured in lungs, using Histone 3 as internal control. […]"}},
  "note": "“Also recorded” adds a separate entry of the source. Ends that are not written are not given here.",
  "data": [
    {"sequence": "KRIWFIPRSSWYERA [SEQ ID NO: 17, KRIWFIPRSSWYERA]", "values": [
      {"measurement": "% Inhibition of type I collagen mRNA induction (in vivo TGF-β1 biological activity)", "setting": "TGF-β1 [1]; Balb/C mice, oral CCl4, 50 μg of peptide every 24 h, sacrifice after 72 hours", "result": "93.09 ± 9.6", "unit": "%"},
      {"measurement": "inhibition of the biological activity of TGF-β1 in vivo (in words)", "setting": "TGF-β1 [1]; acute liver damage, type I collagen mRNA", "result": "most active peptide; also recorded: much greater extent; also recorded: inhibitory capacity; also recorded: capable of inhibiting the expression of collagen type I mRNA"},
      {"measurement": "lung fibrosis (Masson's Trichrome), established fibrosis", "setting": "TGF-β1 [2]; 25 μg/mouse daily from day 10, day 26", "result": "No beneficial effect"},
      {"measurement": "lung fibrosis (Masson's Trichrome), established fibrosis", "setting": "TGF-β1 [2]; 75 μg/mouse daily from day 10, day 26, vs untreated mice", "result": "significant attenuation of fibrosis"},
      {"measurement": "translocation of p-Smad2 to the nucleus", "setting": "TGF-β1 [3]", "result": "did not inhibit"},
      {"measurement": "CTGF mRNA expression induced by TGF-β1", "setting": "TGF-β1 [4]", "result": "significantly decreased"}
    ]}
  ]
}
